According to article PMC5680089 (Science signaling, 2017):

Experiments:
[1] = biological target: ApoM-Fc (Homo sapiens, UniProt O95445); test: intrinsic Trp fluorescence quenching; type: binding
[2] = biological target: S1P1-GFP (U2OS) (Homo sapiens, UniProt P21453); test: receptor internalization, imaging; type: cell-based; details: agonist; […] min, […]°C
Sequence of S1P1-GFP (U2OS) (P21453 whole entry): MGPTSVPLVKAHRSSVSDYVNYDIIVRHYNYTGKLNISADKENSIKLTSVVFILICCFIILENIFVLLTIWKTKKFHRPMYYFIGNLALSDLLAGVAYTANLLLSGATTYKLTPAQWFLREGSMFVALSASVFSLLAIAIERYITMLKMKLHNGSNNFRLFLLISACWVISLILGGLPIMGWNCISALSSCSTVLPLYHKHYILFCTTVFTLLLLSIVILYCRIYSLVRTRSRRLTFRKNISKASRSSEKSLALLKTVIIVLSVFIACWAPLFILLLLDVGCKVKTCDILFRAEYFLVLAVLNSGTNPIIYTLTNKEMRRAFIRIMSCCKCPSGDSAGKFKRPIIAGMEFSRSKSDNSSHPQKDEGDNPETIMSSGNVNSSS

Sequence of ApoM-Fc (O95445 20-188 limits assumed): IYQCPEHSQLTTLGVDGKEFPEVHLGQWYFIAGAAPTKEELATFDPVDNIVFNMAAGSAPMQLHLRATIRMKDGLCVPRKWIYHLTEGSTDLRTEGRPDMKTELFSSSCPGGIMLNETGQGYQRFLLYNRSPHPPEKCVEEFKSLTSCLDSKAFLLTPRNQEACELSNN

CCCCCCCCCCCCC/C=C/[C@@H](O)[C@@H](N)COP(=O)(O)O [S1P]
EC50 [1]: ~220 nM

CCCCCCCCc1ccc(CCC(N)(CO)COP(=O)(O)O)cc1 (centres unmarked) [FTY720-P]
receptor internalization, imaging [2]: lower than that induced by FTY720-P, a potent and irreversible inducer of S1P1 endocytosis
